Source: patent US20240058443A1, “PREVENTION OR MITIGATION OF NK CELL ENGAGING AGENT-RELATED ADVERSE EFFECTS” (Hoffmann-La Roche Inc., priority 2021, published 2024)

Tests used:
CD19+ B cell = assay: Whole blood assay: obinutuzumab-induced B cell depletion measured by flow cytometry; format: cell-based; conditions: for B cell depletion induced by obinutuzumab: 100 nM inhibitor, fresh whole blood, obinutuzumab 100 to 0.1 μg/mL, 48 hours, FIG. 1; for target cell killing mediated by NK cell engaging antibody: summary statement of the description, no conditions given
Experimental: FIG. 1. Effect of 100 nM ruxolitinib (ruxo), 100 nM sirolimus (siro), 100 nM dasatinib (dasa) on obinutuzumab-induced CD19^+ B cell depletion in a whole blood assay. Fresh whole blood was incubated with 100, 10, 1 and 0.1 μg/mL obinutuzumab or PGLALA IgG in the presence and absence of 100 nM ruxolitinib, 100 nM sirolimus and 100 nM dasatinib for 48 hours. The PGLALA IgG has a silent Fc region and is a negative control. At 48 hours, blood was collected and lysed and the percentage of CD19^+ B cell among live cells was measured by flow cytometry. Mean of n=2 donors.
(§1) The CD20-targeting, effector-enhanced antibody obinutuzumab (Gazyva®) depletes B cells via FcγR signaling, and can be associated with a risk of infusion reaction characterized by cytokine release induced via FcγR signaling. To assess whether the mTOR inhibitor sirolimus, the JAK1/2 inhibitor ruxolitinib and the Src inhibitor dasatinib can prevent cytokine release induced via FcγR signaling, a whole blood assay using escalating doses of obinutuzumab in the presence and absence of sirolimus, ruxolitinib and dasatinib was conducted. A corresponding anti-CD20 IgG with a silent Fc portion (comprising “PGLALA” mutations L234A, L235A, P329G (Kabat EU numbering)) was used as a negative control (“PGLALA IgG”). In this assay, fresh whole blood is incubated together with concentrations of obinutuzumab ranging from 100 μg/mL to 0.1 μg/mL in the presence and absence of 100 nM sirolimus, 100 nM ruxolitinib and 100 nM dasatinib. To assess the impact of the different kinase inhibitors on cytokine release, serum was collected at 24 hours and cytokines were analyzed by Luminex. To assess the impact of the different kinase inhibitors on B cell depletion, blood was lysed at 48 hours and B cell depletion was measured by flow cytometry.

[1] = tested on: cytokine release induced via FcγR signaling; assay: Whole blood assay: obinutuzumab-induced cytokine release, serum cytokines analyzed by Luminex; format: cell-based; conditions: for levels of IFN-γ: FIG. 2A; for levels of TNF-α: FIG. 2C; for levels of MCP-1: FIG. 2F; for cytokine release: overall statement, whole blood, obinutuzumab; for cytokine release induced by an NK cell engaging antibody: summary statement of the description, no conditions given
Experimental: FIG. 2. Effect of 100 nM ruxolitinib (ruxo), 100 nM sirolimus (siro), 100 nM dasatinib (dasa) on obinutuzumab-induced IFN-γ (FIG. 2A), IL-2 (FIG. 2B), TNF-α (FIG. 2C), IL-6 (FIG. 2D), IL-8 (FIG. 2E) and MCP-1 (FIG. 2F) for 100, 10, 1 and 0.1 μg/mL obinutuzumab in a whole blood assay. Fresh whole blood was incubated with 100, 10, 1 and 0.1 μg/mL obinutuzumab or PGLALA IgG in the presence and absence of 100 nM ruxolitinib, 100 nM sirolimus and 100 nM dasatinib for 48 hours. The PGLALA IgG has a silent Fc region and is a negative control. At 24 hours, serum was collected and cytokines were analyzed by Luminex. Mean of n=2 donors.
as §1

[2] = 100 nM inhibitor, fresh whole blood, obinutuzumab 100 to 0.1 μg/mL, serum at 24 hours
[3] = 100 nM inhibitor, fresh whole blood, obinutuzumab 100 to 0.1 μg/mL, serum at 24 hours, FIG. 2D, first IL-6 of the list
[4] = 100 nM inhibitor, fresh whole blood, obinutuzumab 100 to 0.1 μg/mL, serum at 24 hours, second IL-6 of the list

For Cc1nc(Nc2ncc(C(=O)Nc3c(C)cccc3Cl)s2)cc(N2CCN(CCO)CC2)n1 [dasatinib, N-(2-chloro-6-methylphenyl)-2[[6[4-(2-hydroxyethyl)-1-piperazinyl]-2-methyl-4-pyrimidinyl]amino]-5-thiazole carboxamide monohydrate], the “B cell depletion induced by obinutuzumab” value (CD19+ B cell) was “did not prevent”, the “target cell killing mediated by NK cell engaging antibody” value (from here on “target cell killing mediated”) (CD19+ B cell) was “retaining” and the “levels of IFN-γ” value [1, 2] was “strongly reduced”. For the same compound, the “levels of IL-2” value ([1]; 100 nM inhibitor, fresh whole blood, obinutuzumab 100 to 0.1 μg/mL, serum at 24 hours, FIG. 2B) was “strongly reduced”, the “levels of TNF-α” value [1, 2] was “strongly reduced” and the “levels of IL-6” value [1, 3] was “strongly reduced”. For the same compound, the “levels of MCP-1” value [1, 2] was “strongly reduced”, the “levels of IL-6” value [1, 4] was “strongly reduced” and the “potency in reducing cytokine release among the three classes of kinase inhibitors” value ([1]; comparison of Src, mTOR and JAK1/2 inhibitor at 100 nM) was “most potent”. The cytokine release ([1]; 100 nM inhibitor) was “reduced cytokine release” and the “cytokine release induced by an NK cell engaging antibody” value (shortened to “cytokine release induced”) [1] was “potently prevent”.
In the case of CO[C@H]1C[C@@H]2CC[C@@H](C)[C@@](O)(O2)C(=O)C(=O)N2CCCC[C@H]2C(=O)O[C@H]([C@H](C)C[C@@H]2CC[C@@H](OCCO)[C@H](OC)C2)CC(=O)[C@H](C)/C=C(\C)[C@@H](O)[C@@H](OC)C(=O)[C@H](C)C[C@H](C)/C=C/C=C/C=C/1C [everolimus, Everolimus], the “target cell killing mediated” value (CD19+ B cell) is reported as “retaining” and the “cytokine release induced” value [1] is reported as “potently prevent”.
In the case of N#CC[C@H](C1CCCC1)n1cc(-c2ncnc3[nH]ccc23)cn1 [ruxolitinib, Ruxolitinib], the “B cell depletion induced by obinutuzumab” value (CD19+ B cell) is reported as “did not prevent”, the “target cell killing mediated” value (CD19+ B cell) is reported as “retaining” and the “levels of IFN-γ” value [1, 2] is reported as “reduced”. For the same compound, the “levels of TNF-α” value [1, 2] was “reduced”, the “levels of IL-6” value [1, 3] was “reduced” and the “levels of MCP-1” value [1, 2] was “reduced”. For the same compound, the “levels of IL-6” value [1, 4] was “reduced”, the cytokine release ([1]; 100 nM inhibitor) was “reduced cytokine release” and the “cytokine release induced” value [1] was “potently prevent”.
CO[C@H]1C[C@@H]2CC[C@@H](C)[C@@](O)(O2)C(=O)C(=O)N2CCCC[C@H]2C(=O)O[C@H]([C@H](C)C[C@@H]2CC[C@@H](O)[C@H](OC)C2)CC(=O)[C@H](C)/C=C(\C)[C@@H](O)[C@@H](OC)C(=O)[C@H](C)C[C@H](C)/C=C/C=C/C=C/1C [sirolimus, Sirolimus] was tested, and the “B cell depletion induced by obinutuzumab” value (CD19+ B cell) was “did not prevent”, the “target cell killing mediated” value (CD19+ B cell) was “retaining” and the “levels of IFN-γ” value [1, 2] was “reduced”. For the same compound, the “levels of TNF-α” value [1, 2] was “reduced”, the “levels of IL-6” value [1, 3] was “reduced” and the “levels of MCP-1” value [1, 2] was “reduced”. The “levels of IL-6” value [1, 4] was “reduced”, the cytokine release ([1]; 100 nM inhibitor) was “reduced cytokine release” and the “cytokine release induced” value [1] was “potently prevent”.
With CO[C@H]1C[C@@H]2CC[C@@H](C)[C@@](O)(O2)C(=O)C(=O)N2CCCC[C@H]2C(=O)O[C@H]([C@H](C)C[C@@H]2CC[C@@H](OC(=O)C(C)(CO)CO)[C@H](OC)C2)CC(=O)[C@H](C)/C=C(\C)[C@@H](O)[C@@H](OC)C(=O)[C@H](C)C[C@H](C)/C=C/C=C/C=C/1C [temsirolimus, Temsirolimus] the “target cell killing mediated” value (CD19+ B cell) was “retaining” and the “cytokine release induced” value [1] was “potently prevent”.
